Like-named read-outs stand apart in the source and are kept apart here.
Experiments:
KRAS WT = KRAS WT (Homo sapiens (Human), UniProt P01116+P62937); assay: Ras-Raf disruption/FRET/MOA assay, KRAS WT; type: biochemical; settings: read-out: KRAS WT FRET IC50
From the text: (§1) Disruption of B-Raf Ras-Binding Domain (BRAF^RBD) Interaction with K-Ras by Compounds of the Invention (Also Called a FRET Assay or an MOA Assay)
(§2) Note—The following protocol describes a procedure for monitoring disruption of K-Ras G12C (GMP-PNP) binding to BRAF^RBD by a compound of the invention. This protocol may also be executed substituting other Ras proteins or nucleotides, such as K-Ras G12D and K-Ras G13D.
(§3) The purpose of this biochemical assay was to measure the ability of test compounds to facilitate ternary complex formation between a nucleotide-loaded K-Ras isoform and Cyclophilin A; the resulting ternary complex disrupts binding to a BRAF^RBD construct, inhibiting K-Ras signaling through a RAF effector. Data is reported as IC50 values.
(§4) In assay buffer containing 25 mM HEPES pH 7.3, 0.002% Tween20, 0.1% BSA, 100 mM NaCl and 5 mM MgCl2, tagless Cyclophilin A, His6-K-Ras-GMPPNP, and GST-BRAF^RBD were combined in a 384-well assay plate at final concentrations of 25 μM, 12.5 nM, and 50 nM, respectively. Compound was present in plate wells as a 10-point 3-fold dilution series starting at a final concentration of 30 μM. After incubation at 25° C. for 3 hours, a mixture of anti-His Eu—W1024 and anti-GST allophycocyanin was then added to assay sample wells at final concentrations of 10 nM and 50 nM, respectively, and the reaction incubated for an additional 1.5 hours. […] Compounds that facilitate disruption of a K-Ras: RAF complex were identified as those eliciting a decrease in the TR-FRET ratio relative to DMSO control wells.

KRAS G12V = KRAS G12V (Homo sapiens (Human), UniProt P01116+P62937, G12V); assay: Ras-Raf disruption/FRET/MOA assay, KRAS G12V; type: biochemical
From the text: as §1, §2, §3, §4

AsPC-1 (K-Ras G12D) [1] = assay: CellTiter-Glo cell viability assay, AsPC-1; type: cell-based, human; settings: Homo sapiens, ASPC1, 120 h, read-out: AsPC-1 Cell Viability IC50
Method in brief: (§5)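 Viability of K-Ras mutant lines is measured by ATP luminescence after five days of compound treatment. Percent of DMSO control is calculated and dose-response data are fitted with a four-parameter logistic equation.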

AsPC-1 (K-Ras G12D) [2] = assay: Potency assay: pERK; type: cell-based, human; settings: Homo sapiens, ASPC1, read-out: pERK EC50
Method in brief: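 pERK decrease measured after 4 h compound treatment at 37 °C (10 three-fold dilutions, duplicate wells), by either fixed-cell In-Cell Western with DRAQ5 counterstain or AlphaLISA on lysates. Signal fitted against log concentration with a four-parameter model to give IC50.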

NCI-H358 (K-Ras G12C) = assay: CellTiter-Glo cell viability assay, H358; type: cell-based, human; settings: Homo sapiens, NCI-H358, 120 h, read-out: H358 Cell Viability IC50, K-Ras G12C, 5-day treatment
Method in brief: as §5

Sequence of KRAS G12V (P01116 other isoform, or with tags, fused parts or gaps G12V): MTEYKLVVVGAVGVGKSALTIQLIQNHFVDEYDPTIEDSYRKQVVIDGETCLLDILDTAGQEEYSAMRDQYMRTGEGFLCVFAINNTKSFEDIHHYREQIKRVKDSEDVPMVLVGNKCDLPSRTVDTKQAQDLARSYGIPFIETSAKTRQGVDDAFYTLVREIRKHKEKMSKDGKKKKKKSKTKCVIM
Sequence of KRAS G12V (P62937 whole entry): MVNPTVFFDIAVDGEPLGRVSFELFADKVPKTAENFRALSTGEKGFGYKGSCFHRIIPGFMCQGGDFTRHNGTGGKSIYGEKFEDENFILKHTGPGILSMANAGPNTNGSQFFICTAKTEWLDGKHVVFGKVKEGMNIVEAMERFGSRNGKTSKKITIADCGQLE
Sequence of KRAS WT (P01116 other isoform, or with tags, fused parts or gaps): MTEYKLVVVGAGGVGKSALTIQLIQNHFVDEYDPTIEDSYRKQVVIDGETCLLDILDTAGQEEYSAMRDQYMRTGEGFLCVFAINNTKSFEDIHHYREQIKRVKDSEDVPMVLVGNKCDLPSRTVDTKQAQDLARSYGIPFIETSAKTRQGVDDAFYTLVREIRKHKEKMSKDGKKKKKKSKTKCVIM
Sequence of KRAS WT (P62937 whole entry, the tested form may be a part): as the sequence (P62937 whole entry) above

| IC50 (KRAS G12V; read-out: KRAS G12V FRET IC50) [nM] | Structure (SMILES) | IC50 (AsPC-1 (K-Ras G12D) [1]) [nM] | EC50 (AsPC-1 (K-Ras G12D) [2]) [nM] | IC50 (NCI-H358 (K-Ras G12C)) [nM] | other results |
| --- | --- | --- | --- | --- | --- |
| – | CCn1c(-c2cccnc2[C@@H](C)OC)c2c3cc(ccc31)-c1cc(O)cc(c1)C[C@H](NC(=O)[C@H](C(C)C)N(C)C(=O)[C@H]1CCN(C(=O)[C@H]3CN3)C1)C(=O)N1CCC[C@H](N1)C(=O)OCC(C)(C)C2 (atropisomer, axis not shown) [Example 43B] | – | – | – | IC50 (KRAS WT): 1000 to 10000 nM |
| 1000 to 10000 | CCn1c(-c2cccnc2[C@H](C)OC)c2c3cc(ccc31)-c1cccc(c1)C[C@H](NC(=O)[C@H](C(C)C)N(C)C(=O)CCN=C=NCc1ccccc1OC)C(=O)N1CCC[C@H](N1)C(=O)OCC(C)(C)C2 [Example 73] | – | – | – | – |
| 1000 to 10000 | CCn1c(-c2cccnc2[C@H](C)OC)c2c3cc(ccc31)-c1cccc(c1)C[C@H](NC(=O)[C@H](C(C)C)N(C)C(=O)[C@H]1CC[C@H](N=C=NCc3ccccc3OC)C1)C(=O)N1CCC[C@H](N1)C(=O)OCC(C)(C)C2 [Example 76] | – | – | – | – |
| 1000 to 10000 | CCn1c(-c2cccnc2[C@H](C)OC)c2c3cc(ccc31)-c1cccc(c1)C[C@H](NC(=O)[C@H](C(C)C)N(C)C(=O)[C@H]1CC[C@H](N=C=NC(C)(C)C)C1)C(=O)N1CCC[C@H](N1)C(=O)OCC(C)(C)C2 [Example 125] | – | – | – | – |
| – | CCn1c(-c2cccnc2[C@H](C)OC)c2c3cc(ccc31)-c1cc(O)cc(c1)C[C@H](NC(=O)[C@H](C(C)C)N(C)C(=O)CN(C)C(=O)[C@H]1CN1CC1(C)COC1)C(=O)N1CCC[C@H](N1)C(=O)OCC(C)(C)C2 (some centres unmarked) [Example 279] | 100 to 1000 | < 5000 | < 10 | – |
| – | CCn1c(-c2cccnc2[C@H](C)OC)c2c3cc(ccc31)-c1cc(O)cc(c1)C[C@H](NC(=O)[C@H](C(C)C)N(C)C(=O)CN(C)C(=O)[C@@H]1CN1CC1(C)COC1)C(=O)N1CCC[C@H](N1)C(=O)OCC(C)(C)C2 (some centres unmarked) [Example 280] | 1000 to 10000 | < 5000 | < 10 | – |
| – | CCn1c(-c2cccnc2[C@H](C)OC)c2c3cc(ccc31)-c1cc(O)cc(c1)C[C@H](NC(=O)[C@H](C(C)C)N(C)C(=O)CN(C)C(=O)[C@@H]1N[C@H]1C1COC1)C(=O)N1CCC[C@H](N1)C(=O)OCC(C)(C)C2 [Example 283] | 100 to 1000 | < 5000 | 10 to 100 | – |
| – | CCn1c(-c2cccnc2[C@H](C)OC)c2c3cc(ccc31)-c1cc(O)cc(c1)C[C@H](NC(=O)[C@H](C(C)C)N(C)C(=O)CN(C)C(=O)[C@@H]1N[C@@H]1C1CCC1)C(=O)N1CCC[C@H](N1)C(=O)OCC(C)(C)C2 [Example 287] | 100 to 1000 | < 5000 | 10 to 100 | – |
| – | CCn1c(-c2cccnc2[C@H](C)OC)c2c3cc(ccc31)-c1cc(O)cc(c1)C[C@H](NC(=O)[C@H](C(C)C)N(C)C(=O)CN(C)C(=O)[C@H]1N[C@H]1C1CCC1)C(=O)N1CCC[C@H](N1)C(=O)OCC(C)(C)C2 [Example 288] | 100 to 1000 | < 5000 | 10 to 100 | – |
| – | CCn1c(-c2cccnc2[C@H](C)OC)c2c3cc(ccc31)-c1cc(O)cc(c1)C[C@H](NC(=O)[C@H](C1CCCC1)N(C)C(=O)[C@@H](C)N(C)C(=O)[C@@H]1N[C@@H]1C1CC1)C(=O)N1CCC[C@H](N1)C(=O)OCC(C)(C)C2 [Example 327] | – | – | – | IC50 (KRAS G12V): 1000 to 10000 nM |
